Like-named read-outs stand apart in the source and are kept apart here.
Columns and labels:
TLR8 = biological target: T1, TLR8 (Homo sapiens, UniProt Q9NR97); experiment: In vitro human TLR8 binding reporter assay (HEK-Blue, NF-kB/AP1-inducible SEAP); assay type: cell-based; details: read-out: TLR8 Agonist EC50
T1 construct: human HEK-Blue cells co-expressing a TLR7 or TLR8 gene
T1 sequence (Q9NR97 27-1041): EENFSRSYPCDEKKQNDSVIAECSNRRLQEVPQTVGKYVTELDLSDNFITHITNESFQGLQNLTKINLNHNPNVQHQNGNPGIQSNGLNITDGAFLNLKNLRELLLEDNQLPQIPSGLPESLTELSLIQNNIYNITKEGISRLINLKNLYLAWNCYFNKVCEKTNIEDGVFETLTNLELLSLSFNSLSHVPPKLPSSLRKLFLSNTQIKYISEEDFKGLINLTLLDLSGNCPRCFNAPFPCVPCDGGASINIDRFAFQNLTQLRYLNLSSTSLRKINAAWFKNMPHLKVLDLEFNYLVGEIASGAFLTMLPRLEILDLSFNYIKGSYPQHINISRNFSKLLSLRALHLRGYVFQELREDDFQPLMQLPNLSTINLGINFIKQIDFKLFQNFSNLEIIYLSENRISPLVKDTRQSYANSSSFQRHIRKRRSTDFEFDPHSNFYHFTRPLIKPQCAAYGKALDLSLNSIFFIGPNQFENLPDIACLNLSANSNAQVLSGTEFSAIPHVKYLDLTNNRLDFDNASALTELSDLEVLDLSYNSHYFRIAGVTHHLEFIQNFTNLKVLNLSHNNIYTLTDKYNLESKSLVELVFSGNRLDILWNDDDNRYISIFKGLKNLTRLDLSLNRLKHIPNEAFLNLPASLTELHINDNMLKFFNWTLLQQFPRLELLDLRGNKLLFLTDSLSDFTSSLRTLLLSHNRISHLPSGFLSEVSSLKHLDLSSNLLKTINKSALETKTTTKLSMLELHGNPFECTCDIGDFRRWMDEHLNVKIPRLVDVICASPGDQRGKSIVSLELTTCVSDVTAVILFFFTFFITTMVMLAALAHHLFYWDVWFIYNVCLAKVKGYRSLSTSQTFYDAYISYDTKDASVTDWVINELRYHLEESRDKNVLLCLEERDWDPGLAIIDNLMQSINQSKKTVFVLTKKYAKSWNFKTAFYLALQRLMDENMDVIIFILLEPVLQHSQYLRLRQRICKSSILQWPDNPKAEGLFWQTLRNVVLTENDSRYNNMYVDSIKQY
Method in brief: (§1)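 Cells are seeded and grown for 24 h. Compounds or DMSO are then added and incubated 18 h at 37 °C. Quanti-Blue is added, and SEAP is read after thirty minutes. EC50 values are normalized, with RLU from 50 μM reference standard setting 100% Ymax.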

TLR7 = biological target: T2, TLR7 (Homo sapiens, UniProt Q9NYK1); experiment: In vitro human TLR7 binding reporter assay (HEK-Blue, NF-kB/AP1-inducible SEAP); assay type: cell-based; details: read-out: TLR7 Agonist EC50
T2 construct: human HEK-Blue cells co-expressing a TLR7 or TLR8 gene
T2 sequence (Q9NYK1 27-1049): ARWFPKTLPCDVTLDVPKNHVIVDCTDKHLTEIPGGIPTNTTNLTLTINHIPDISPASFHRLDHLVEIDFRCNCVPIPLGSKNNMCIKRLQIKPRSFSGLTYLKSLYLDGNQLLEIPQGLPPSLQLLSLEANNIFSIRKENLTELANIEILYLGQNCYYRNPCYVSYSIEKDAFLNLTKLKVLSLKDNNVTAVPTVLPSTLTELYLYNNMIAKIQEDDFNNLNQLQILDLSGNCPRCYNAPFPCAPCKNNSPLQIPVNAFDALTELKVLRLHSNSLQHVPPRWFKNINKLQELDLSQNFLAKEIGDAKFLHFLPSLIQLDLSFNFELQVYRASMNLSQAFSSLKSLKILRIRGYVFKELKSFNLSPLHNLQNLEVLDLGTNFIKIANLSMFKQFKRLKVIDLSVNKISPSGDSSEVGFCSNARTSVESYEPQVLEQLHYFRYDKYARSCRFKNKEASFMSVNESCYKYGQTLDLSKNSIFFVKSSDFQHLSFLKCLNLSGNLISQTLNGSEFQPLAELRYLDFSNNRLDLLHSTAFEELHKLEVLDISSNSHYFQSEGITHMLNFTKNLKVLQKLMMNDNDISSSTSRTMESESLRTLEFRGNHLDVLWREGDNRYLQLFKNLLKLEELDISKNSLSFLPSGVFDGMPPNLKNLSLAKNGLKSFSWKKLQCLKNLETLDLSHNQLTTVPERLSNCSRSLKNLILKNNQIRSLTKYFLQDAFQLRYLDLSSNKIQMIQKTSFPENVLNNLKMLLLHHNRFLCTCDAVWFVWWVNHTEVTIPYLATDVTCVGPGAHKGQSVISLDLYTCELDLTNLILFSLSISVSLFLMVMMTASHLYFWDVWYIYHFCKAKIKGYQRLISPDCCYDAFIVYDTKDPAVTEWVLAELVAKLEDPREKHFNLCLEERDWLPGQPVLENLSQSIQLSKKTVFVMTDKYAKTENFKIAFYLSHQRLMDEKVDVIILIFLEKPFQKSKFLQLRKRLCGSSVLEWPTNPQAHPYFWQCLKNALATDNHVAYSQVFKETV
Method in brief: as §1

THP-1 cells = experiment: Measurement of IL-1β production, hTRF protocol (second alternative procedure), THP-1 cells; assay type: cell-based, human; details: Homo sapiens, THP-1, IL-1β production, read-out: NLRP3 hILIB EC50
Method in brief: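 Compounds, dilution series starting at a final 10 μM, were incubated 2 hours at 37° C with PMA-differentiated THP-1 cells (50 ng/ml overnight; 50,000 cells/well, 2% FBS RPMI). Released IL-1β quantified in supernatant by hTRF kit with 1:40 antibody dilution, 4° C overnight, 665/615 nm ratio.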

| SMILES | EC50 (TLR8; activity range class) | EC50 (TLR7; activity range class) | EC50 (THP-1 cells; human) | EC50 (TLR8; activity range) | EC50 (TLR7; activity range) | EC50 (THP-1 cells; human cells) |
| --- | --- | --- | --- | --- | --- | --- |
| Nc1nc2cc(-c3cc[nH]n3)ccc2c2cn(CCNC(=O)c3cccc(F)c3)nc12 [Example 77] | > 100 µM | > 100 µM | 1.68 µM | – | – | – |
| CC(=O)NC(C)(C)Cn1cc2c(N)nc3cc(-c4ccn[nH]4)ccc3c2n1 [Example 256] | > 100 µM | > 100 µM | 0.53 µM | – | – | – |
| CCCn1ncc2c(N)nc3cc(-c4cc[nH]n4)ccc3c21 [Example 221] | > 100 µM | > 100 µM | 0.21 µM | – | – | – |
| NCCCc1nc2c(N)nc3cc(-c4ccn[nH]4)ccc3c2s1 [Example 138] | > 100 µM | > 100 µM | 3.92 µM | – | – | – |
| CC(O)Cn1ncc2c(N)nc3cc(-c4cc[nH]n4)ccc3c21 (stereo not drawn) [Example 428] | – | – | – | > 100 µM | > 100 µM | 1.81 µM |
| Nc1nc2cc(-c3cc[nH]n3)ccc2c2nn(CCCCO)cc12 [Example 351] | > 100 µM | > 100 µM | 0.64 µM | – | – | – |
| Cc1nc(Cn2cc3c(n2)c(N)nc2cc(-c4cc[nH]n4)ccc23)no1 [Example 174] | 20 to 100 µM | 1 to 20 µM | 0.23 µM | – | – | – |
| Nc1nc2cc(-c3cc[nH]n3)ccc2c2c1cnn2CCCO [Example 216] | > 100 µM | > 100 µM | 3.04 µM | – | – | – |
| CC1(O)CCCC1n1cc2c(N)nc3cc(-c4cc[nH]n4)ccc3c2n1 (stereo not drawn) [Example 343] | > 100 µM | > 100 µM | 0.61 µM | – | – | – |
| Nc1nc2cc(-c3cc[nH]n3)ccc2c2cn(CCNC(=O)c3coc(Cl)n3)nc12 [Example 176] | 20 to 100 µM | 20 to 100 µM | 0.05 µM | – | – | – |
| CN(C)C(=O)C(C)(C)Cn1cc2c(N)nc3cc(-c4ccn[nH]4)ccc3c2n1 [Example 592] | – | – | – | > 100 µM | > 100 µM | 0.68 µM |
| Nc1nc2cc(-c3cc[nH]n3)ccc2c2[nH]c(CCNC(=O)c3ccc(F)cn3)cc12 [Example 417] | – | – | – | > 100 µM | > 100 µM | 0.16 µM |
| Nc1nc2cc(-c3ccn[nH]3)ccc2c2nn(CCNC(=O)c3csc(Cl)n3)nc12 [Example 158] | 20 to 100 µM | > 100 µM | 0.97 µM | – | – | – |
| CC(C)(Cn1cc2c(N)nc3cc(-c4cc[nH]n4)ccc3c2n1)NC(=O)c1ccc(F)cn1 [Example 293] | > 100 µM | > 100 µM | 0.6 µM | – | – | – |
| CNC(=O)Cn1cc2c(N)nc3cc(-n4cccn4)ccc3c2n1 [Example 554] | – | – | – | > 100 µM | > 100 µM | 0.46 µM |
| CCn1c(CCCO)cc2c(N)nc3cc(-c4ccn[nH]4)ccc3c21 [Example 449] | – | – | – | > 100 µM | > 100 µM | 0.7 µM |
| N#CC1(C(=O)NCCn2cc3c(n2)c(N)nc2cc(-c4cc[nH]n4)ccc23)CC1 [Example 182] | > 100 µM | > 100 µM | 1.27 µM | – | – | – |
| CCS(=O)(=O)NCCc1cc2c(N)nc3cc(-c4cc[nH]n4)ccc3c2[nH]1 [Example 482] | – | – | – | > 100 µM | > 100 µM | 2.21 µM |
| CS(=O)(=O)CCn1cc2c(N)nc3cc(-c4cc[nH]n4)ccc3c2n1 [Example 463] | – | – | – | > 100 µM | > 100 µM | 0.13 µM |
| Nc1nc2cc(-c3cc[nH]n3)ccc2c2cn(CCc3ccccn3)nc12 [Example 163] | > 100 µM | > 100 µM | 0.06 µM | – | – | – |
| CN1CCOC(C(=O)NCCn2cc3c(n2)c(N)nc2cc(-c4cc[nH]n4)ccc23)C1 (single isomer, unassigned) [Example 179] | > 100 µM | > 100 µM | 25.8 µM | – | – | – |
| Nc1nc2cc(-c3cc[nH]n3)ccc2c2nn(C3CCCCC3O)cc12 (stereo not drawn) [Example 317] | > 100 µM | > 100 µM | 2.42 µM | – | – | – |
| COCCn1cc2c(N)nc3cc(-c4ccn[nH]4)ccc3c2c1 [Example 456] | – | – | – | > 100 µM | > 100 µM | 0.23 µM |
| Cc1cc(C)n(CCn2cc3c(n2)c(N)nc2cc(-n4cccn4)ccc23)n1 [Example 12] | 20 to 100 µM | 20 to 100 µM | 1.52 µM | – | – | – |

Source: US12037344B2, “NLRP3 modulators” (INNATE TUMOR IMMUNITY, INC., priority 2018, dated 2024)
